Assay results published in patent US11260060B2, “Methods and formulations for treatment of and/or protection against acute liver failure and other hepatotoxic conditions” (EGETIS THERAPEUTICS AB, priority 2016, dated 2022).

Assays:
[1] = Forced temperature degradation of a NAC/CaM mixture at 70° C. for 6 hours; format: physicochemical; settings: NAC/CaM mixture in deionised water
From the text: This Example describes short and long term stability studies involving mixtures of Calmangafodipir and NAC. Each mixture was formed by adding CaM (in the form of a trisodium salt powder) and NAC to deionised water and mixing on a Vortex shaker. The solution was then transferred to an amber vial. In these studies, typically no additives or stabilizers were used. Standard degradation studies undertaken at short term used the known method of “forced” temperature degradation by storing solutions at 70° C. for 6 hours (to indicate general longer-term storage performance). Samples were withdrawn at specified time points and analyzed by standard spectroscopic methods for N-acetylcysteine (NAC), Calmangafodipir (CaM) and Calmangafodipir-related substances.

[2] = test system: acetaminophen-induced ALF in male B6C3F1 mice; experiment: Animal deaths in acetaminophen-induced ALF mice within 12 hour sampling period; format: in vivo; settings: within 12 hours after APAP 300 mg/kg i.p., i.v. treatment 1-6 hours post APAP, pooled doses
From the text: This Example studied the pharmaceutical effects of individual and combined therapies on animal deaths and involved male B6C3F1 mice. Even though serum enzyme activity studies are strongly indicative of liver failure or protection, it is also important to consider other data such as that related to subject animal deaths (%) as a function of the pharmacological treatment. The experiments of this Example studied the pharmaceutical effects of individual and combined therapies on animal deaths in male B6C3F1 mice. The mice were fasted for 8-10 hours and ALF was induced with 300 mg/kg acetaminophen (APAP), i.p., with treatment as specified in the following test groups: • APAP control (n=81, APAP 300 mg/kg i.p.), • NAC (n=53, 30-300 mg/kg i.v., 1-6 hours post APAP), • CaM (n=97, 0.3-10 mg/kg i.v., 1-6 hours post APAP), • CaDPDP (n=10, 3-10 mg/kg i.v., 6 hours post APAP), and • NAC/CaM (n=28, NAC 300 mg/kg, combined with 0.3-10 mg/kg CaM i.v., 2.5-6 hours post APAP).

[3] = test system: acetaminophen-induced ALF in male B6C3F1 mice; experiment: Acetaminophen-induced ALF mouse model, ALAT at 12 hours; format: in vivo; settings: NAC 30-300 mg/kg 1 hour post 300 mg/kg i.p. acetaminophen, FIG. 7
Procedure: In each experiment, an i.p. injection of 300 mg/kg acetaminophen was made to male B6C3F1 mice to cause acetaminophen-induced ALF. In a first experiment, a 300 mg/kg dosage of NAC was administered 1-6 hours after acetaminophen administration. In a second experiment, NAC was administered in a dosage of 30-300 mg/kg NAC 1 hour after acetaminophen administration. In a third experiment, a dosage of 0.3-10 mg/kg calmangafodipir (CaM) was administered 6 hours post acetaminophen administration. In each experiment, ALAT was measured 12 hours following the i.p. injection of 300 mg/kg acetaminophen. FIGS. 6 to 8 show ALF response to administration of NAC and CaM, as detected by monitoring ALAT. […] FIG. 7 indicates the NAC dose-response of NAC administration of 30-300 mg/kg NAC 1 hour post acetaminophen administration. Mean±SEM ALAT levels at 12 hours following i.p. injection of 300 mg/kg acetaminophen in male B6C3F1 mice (n=4-11 per bar) are shown. […] Median±interquartile ALAT levels at 12 hours following i.p. injection of acetaminophen in male B6C3F1 mice (n=4-16 per bar) are shown. Due to some outlier values, and variability from the two experiments, both of which are not unexpected in such model system studies, the data points are plotted individually as well as the median values±inter-quartile range.

Row | Molecule | concentration of NAC during forced degradation [1] | Deaths, % [2] | Deaths, no. [2] | NAC dose-response of ALAT levels [3] | decrease in CaM concentration during forced degradation [1] | Deaths, % ([2]; listed as calmangafodipir)
1 | CC(=O)N[C@@H](CS)C(=O)O [NAC, N-acetylcysteine] | remained constant | 8% | 4 | No clear dose-response could be detected |  | 
2 | calmangafodipir [CaM] |  | 8% | 8 |  | about 1 % per hour | 8%
